Data as given in article PMC4457528, “Identification of Novel Small Molecule Inhibitors of Oncogenic RET Kinase” (PLoS ONE, 2015).

Legend:
Assay in all cases: KinomeScan kinase panel, single concentration 10 µM
Assay type in all cases: binding
KinomeScan kinase panel [1] = target: T1, KinomeScan kinase panel (Homo sapiens, UniProt Q15375); conditions: EPHA7, 10 µM; read-out: score (%)
T1 construct: purchased DiscoveRx (KinomeScan)

KinomeScan kinase panel [2] = target: T2, KinomeScan kinase panel (Homo sapiens, UniProt Q04912); conditions: MST1R, 10 µM; read-out: score (%)
T2 construct: purchased DiscoveRx (KinomeScan)
T2 sequence (Q04912 25-1400): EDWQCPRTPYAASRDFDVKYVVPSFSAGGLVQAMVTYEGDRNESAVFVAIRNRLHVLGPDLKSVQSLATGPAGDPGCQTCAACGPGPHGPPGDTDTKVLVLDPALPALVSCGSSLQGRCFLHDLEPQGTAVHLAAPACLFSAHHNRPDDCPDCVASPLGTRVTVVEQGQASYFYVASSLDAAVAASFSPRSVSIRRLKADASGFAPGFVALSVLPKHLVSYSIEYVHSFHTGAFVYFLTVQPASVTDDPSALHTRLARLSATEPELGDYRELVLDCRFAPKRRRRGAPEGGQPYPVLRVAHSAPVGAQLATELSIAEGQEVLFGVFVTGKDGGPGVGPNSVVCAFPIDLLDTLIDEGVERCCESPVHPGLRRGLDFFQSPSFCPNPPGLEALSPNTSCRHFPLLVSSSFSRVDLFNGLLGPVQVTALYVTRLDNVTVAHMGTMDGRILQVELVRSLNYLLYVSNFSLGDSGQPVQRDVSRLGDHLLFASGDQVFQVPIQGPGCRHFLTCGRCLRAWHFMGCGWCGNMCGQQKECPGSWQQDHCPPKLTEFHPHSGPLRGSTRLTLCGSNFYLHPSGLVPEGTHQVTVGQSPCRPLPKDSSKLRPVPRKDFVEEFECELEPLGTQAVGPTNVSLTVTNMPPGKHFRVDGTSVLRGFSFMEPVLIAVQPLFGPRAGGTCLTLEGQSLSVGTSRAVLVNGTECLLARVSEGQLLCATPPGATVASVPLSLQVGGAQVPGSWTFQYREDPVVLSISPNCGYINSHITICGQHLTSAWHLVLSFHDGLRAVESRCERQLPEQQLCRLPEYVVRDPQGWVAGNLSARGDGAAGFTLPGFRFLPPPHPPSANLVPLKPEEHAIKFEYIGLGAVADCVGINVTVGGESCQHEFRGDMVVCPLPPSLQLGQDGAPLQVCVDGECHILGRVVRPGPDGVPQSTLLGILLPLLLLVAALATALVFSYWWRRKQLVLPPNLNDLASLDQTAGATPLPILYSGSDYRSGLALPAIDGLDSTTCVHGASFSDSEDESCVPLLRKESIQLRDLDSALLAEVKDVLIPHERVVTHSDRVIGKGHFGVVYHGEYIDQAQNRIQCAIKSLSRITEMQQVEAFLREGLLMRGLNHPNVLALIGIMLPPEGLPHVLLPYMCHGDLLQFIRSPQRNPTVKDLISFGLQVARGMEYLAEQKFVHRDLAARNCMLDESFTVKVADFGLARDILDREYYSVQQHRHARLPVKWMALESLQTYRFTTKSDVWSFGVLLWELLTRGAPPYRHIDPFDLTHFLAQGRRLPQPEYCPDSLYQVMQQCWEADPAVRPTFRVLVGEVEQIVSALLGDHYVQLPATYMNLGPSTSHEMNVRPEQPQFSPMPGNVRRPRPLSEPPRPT

KinomeScan kinase panel [3] = target: T3, KinomeScan kinase panel (Homo sapiens, UniProt P36888, N841I); conditions: FLT3(N841I), 10 µM; read-out: score (%)
T3 construct: purchased DiscoveRx (KinomeScan)
T3 sequence (P36888 27-993 N841I): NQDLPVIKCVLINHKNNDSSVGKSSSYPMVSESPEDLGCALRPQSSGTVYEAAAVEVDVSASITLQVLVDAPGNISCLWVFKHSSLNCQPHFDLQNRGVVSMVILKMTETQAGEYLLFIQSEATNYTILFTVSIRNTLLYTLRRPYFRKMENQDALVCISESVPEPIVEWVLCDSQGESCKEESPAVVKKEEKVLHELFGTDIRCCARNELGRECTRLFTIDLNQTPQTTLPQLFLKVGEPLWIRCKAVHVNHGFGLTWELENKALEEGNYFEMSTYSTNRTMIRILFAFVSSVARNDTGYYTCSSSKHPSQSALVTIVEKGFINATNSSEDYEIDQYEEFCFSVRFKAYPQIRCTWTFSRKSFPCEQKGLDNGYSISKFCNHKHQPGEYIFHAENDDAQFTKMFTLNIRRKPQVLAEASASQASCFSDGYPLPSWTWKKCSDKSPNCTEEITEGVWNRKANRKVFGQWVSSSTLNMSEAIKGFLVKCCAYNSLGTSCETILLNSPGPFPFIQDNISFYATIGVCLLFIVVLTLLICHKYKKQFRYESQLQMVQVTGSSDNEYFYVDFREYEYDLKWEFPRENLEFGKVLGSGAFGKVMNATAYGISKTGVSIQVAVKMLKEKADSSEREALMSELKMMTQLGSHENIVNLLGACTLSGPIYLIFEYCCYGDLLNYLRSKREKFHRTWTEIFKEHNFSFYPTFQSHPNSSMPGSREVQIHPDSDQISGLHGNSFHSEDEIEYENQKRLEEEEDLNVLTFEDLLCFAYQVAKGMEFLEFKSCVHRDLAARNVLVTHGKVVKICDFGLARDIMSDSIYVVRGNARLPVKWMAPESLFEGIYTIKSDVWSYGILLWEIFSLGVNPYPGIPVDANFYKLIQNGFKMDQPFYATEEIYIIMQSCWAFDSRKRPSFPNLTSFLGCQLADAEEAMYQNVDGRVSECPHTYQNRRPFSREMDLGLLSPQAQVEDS

KinomeScan kinase panel [4] = target: T4, KinomeScan kinase panel (Homo sapiens, UniProt P46734); conditions: MEK3, 10 µM; read-out: score (%)
T4 construct: purchased DiscoveRx (KinomeScan)
T4 sequence (P46734 1-347): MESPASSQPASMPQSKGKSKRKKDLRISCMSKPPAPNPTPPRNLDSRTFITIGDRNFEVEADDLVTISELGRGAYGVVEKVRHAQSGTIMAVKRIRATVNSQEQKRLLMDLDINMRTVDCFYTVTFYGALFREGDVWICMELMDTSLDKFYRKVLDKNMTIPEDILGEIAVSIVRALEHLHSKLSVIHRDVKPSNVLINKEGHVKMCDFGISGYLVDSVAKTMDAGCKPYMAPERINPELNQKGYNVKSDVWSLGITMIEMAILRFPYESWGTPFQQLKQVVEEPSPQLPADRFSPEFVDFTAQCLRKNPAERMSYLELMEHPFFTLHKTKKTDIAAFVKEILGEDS

KinomeScan kinase panel [5] = target: T5, KinomeScan kinase panel (Homo sapiens, UniProt Q04771); conditions: ACVR1, 10 µM; read-out: score (%)
T5 construct: purchased DiscoveRx (KinomeScan)
T5 sequence (Q04771 21-509): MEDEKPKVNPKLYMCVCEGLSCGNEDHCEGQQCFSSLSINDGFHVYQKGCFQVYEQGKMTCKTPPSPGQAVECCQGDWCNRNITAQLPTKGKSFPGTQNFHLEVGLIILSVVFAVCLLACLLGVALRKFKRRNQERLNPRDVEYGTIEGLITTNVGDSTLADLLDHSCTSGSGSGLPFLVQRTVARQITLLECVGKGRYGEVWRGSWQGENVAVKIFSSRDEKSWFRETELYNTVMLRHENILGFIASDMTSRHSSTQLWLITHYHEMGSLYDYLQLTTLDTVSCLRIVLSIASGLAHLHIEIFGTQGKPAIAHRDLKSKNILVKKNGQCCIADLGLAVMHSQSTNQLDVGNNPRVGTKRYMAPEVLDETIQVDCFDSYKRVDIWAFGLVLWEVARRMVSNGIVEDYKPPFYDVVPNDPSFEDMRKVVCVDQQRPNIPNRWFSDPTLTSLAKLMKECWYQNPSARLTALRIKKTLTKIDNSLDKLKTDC

T1 sequence (Q15375 28-998): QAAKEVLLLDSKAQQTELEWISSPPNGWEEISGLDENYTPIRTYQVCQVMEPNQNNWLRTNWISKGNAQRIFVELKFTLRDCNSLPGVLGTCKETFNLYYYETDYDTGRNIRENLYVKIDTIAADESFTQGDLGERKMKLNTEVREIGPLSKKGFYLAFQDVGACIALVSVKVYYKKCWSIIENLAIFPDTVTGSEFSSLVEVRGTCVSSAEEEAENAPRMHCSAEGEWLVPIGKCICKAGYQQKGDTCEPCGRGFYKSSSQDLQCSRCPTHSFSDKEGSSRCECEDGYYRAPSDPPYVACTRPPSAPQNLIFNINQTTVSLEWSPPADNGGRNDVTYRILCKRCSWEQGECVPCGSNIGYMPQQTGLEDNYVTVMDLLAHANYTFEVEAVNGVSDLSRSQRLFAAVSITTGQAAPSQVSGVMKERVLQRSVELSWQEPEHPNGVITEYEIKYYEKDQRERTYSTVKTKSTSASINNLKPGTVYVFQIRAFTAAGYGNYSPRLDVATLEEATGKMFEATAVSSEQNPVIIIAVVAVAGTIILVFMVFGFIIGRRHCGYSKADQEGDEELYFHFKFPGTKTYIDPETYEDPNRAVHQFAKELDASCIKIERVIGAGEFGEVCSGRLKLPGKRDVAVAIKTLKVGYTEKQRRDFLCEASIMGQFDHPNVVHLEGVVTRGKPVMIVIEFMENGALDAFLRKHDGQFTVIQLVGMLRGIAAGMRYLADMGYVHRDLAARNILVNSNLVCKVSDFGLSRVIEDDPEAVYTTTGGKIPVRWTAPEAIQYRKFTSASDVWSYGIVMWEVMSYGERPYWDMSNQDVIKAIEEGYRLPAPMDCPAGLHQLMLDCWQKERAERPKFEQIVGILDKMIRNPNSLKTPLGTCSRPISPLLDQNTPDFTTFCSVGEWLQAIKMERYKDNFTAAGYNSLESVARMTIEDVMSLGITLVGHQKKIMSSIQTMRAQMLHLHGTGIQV

Row | Structure (SMILES) | remaining binding at 10 µM (KinomeScan kinase panel [1]) [%] | remaining binding at 10 µM (KinomeScan kinase panel [2]) [%] | remaining binding at 10 µM (KinomeScan kinase panel [3]) [%] | remaining binding at 10 µM (KinomeScan kinase panel [4]) [%] | remaining binding at 10 µM (KinomeScan kinase panel [5]) [%]
1 | CCN1CCN(Cc2ccc(NC(=O)c3ccc(C)c(NC(=O)c4cncc(-c5cccs5)c4)c3)cc2C(F)(F)F)CC1 [ALW-II-41-27] | > 30 | > 30 | 0.75 | > 30 | > 30
2 | CCN1CCN(Cc2ccc(NC(=O)c3ccc(C)c(/C=C/c4cnc5[nH]ccc5c4Cl)c3)cc2C(F)(F)F)CC1 [HG-6-63-01, (E)-3-(2-(4-chloro-1H-pyrrolo[2,3-b]pyridin-5-yl)vinyl)-N-(4-((4-ethylpiperazin-1-yl)methyl)-3-(trifluoromethyl)phenyl)-4-methylbenzamide] | > 30 | > 30 | 0.15 | > 30 | > 30
3 | CCN1CCN(Cc2ccc(NC(=O)c3ccc(C)c(C#Cc4cccnc4)c3)cc2C(F)(F)F)CC1 [XMD15-44] | 0.55 | > 30 | 0 | > 30 | > 30
